Source: PMC10747736, “In Vitro Activities of Dithiocarbamate Derivatives against Echinococcus multilocularis Metacestode Vesicles” (Tropical Medicine and Infectious Disease, 2023)

Tested on: E. multilocularis metacestode vesicles
Experiment: PGI assay (damage marker release) with metacestode vesicles
Format: cell-based, Echinococcus multilocularis
Parameters: key: Active: Compounds were considered active when they reached 20% of PGI release relative to Triton X-100; Not active: Compounds were considered active when they reached 20% of PGI release relative to Triton X-100
Conditions: overview screen at 10 µM, five days, 20% cut-off relative to Triton X-100
Protocol: In order to screen disulfiram and dithiocarbamate derivatives as potential new drug candidates, we used an in vitro screening cascade, in which the compounds were first screened against E. multilocularis metacestode vesicles via the phosphoglucose isomerase (PGI) assay, in which metacestode vesicle damage is assessed by the measurement of damage marker (PGI) release (Figure 1, see Section 2.6). […] Subsequently, compounds were assessed in concentration series on E. multilocularis metacestode vesicles via the PGI assay and on GL cell cultures via the CellTiter-Glo assay (see Section 2.9). The testing on mammalian cells as well as metacestode vesicles and GL cell cultures allowed the identification of a potential therapeutic window in vitro.
PGI assays were conducted at the University of Bern as described previously. In short, two-to-three-month-old metacestode vesicles of two to four mm in diameter were purified using 2% sucrose followed by several washing steps in PBS. Purified metacestode vesicles were mixed with two volumes of DMEM without phenol red containing penicillin (100 U/mL) and streptomycin (100 µg/mL). […] Samples were measured on an EnSpire multilabel reader (Perkin Elmer, Waltham, MA, USA). […] Samples were measured on a HIDEX Sense microplate reader (Hidex, Turku, Finland). […]

CCN(CC)C(=S)SSC(=S)N(CC)CC [Disulfiram]
PGI assay (active / not active): Not active
PGI assay (active / not active) (listed as disulfiram): showed no effect
